Each block holds one molecule with its values, some of them ahead of it. Peptide text beside a SMILES is read from it. * marks the point of attachment. Cbz = O=C(OCc1ccccc1)*
Tests used:
NotchΔE-EGFP [1] = test: cells; assay type: cell-based; conditions: for activity in NotchΔE-EGFP cells (enuc/nuc ratios): SAR and prior-art comparison, FIG. 5a/5b; for change of reporter localization quantified by automated microscopy: assay validation, monensin 6 h dose-dependent, MG132 1 μM 16 h
Description: To identify novel regulatory factors involved in Notch trafficking/processing an image-based high content screen was set up. […] NotchΔE-EGFP is a direct substrate for γ-secretase at the PM, and under physiological conditions is proteolytically processed to NICD-EGFP that translocates into the nucleus (for scheme see FIG. 1b), resulting in a strong nuclear EGFP-staining in steady state^15 (FIG. 1d). […] Importantly, changes in subcellular localization of the reporter are amenable to quantitation by automated microscopy^15. Accordingly, reporter fluorescence was determined in the nucleus (nuc) and in a ring around the nucleus (enuc), and the ratio enuc/nuc was evaluated (schematized in FIG. 1c). Thereafter, the assay design was functionally validated. […] The assay also reliably detected trafficking defects in the secretory pathway. […] Taken together, the assay was validated for reliably detecting concentration and time dependent changes in trafficking and processing of the Notch reporter.
Cells were seeded in 96-well plates at a density of 5000 cells/well in 100 μl medium. The next day, 100 μl medium containing the respective test compounds was added. Cells were incubated for 16 h, fixed and processed for automated microscopy. For the putative gamma-secretase inhibitors the enuc intensity was divided by the DAPT control and for the trafficking inhibitors normalized percentage inhibition against DAPT/DMSO controls of log 2 transformed nuc/enuc ratios were calculated. Relative activity values were read into “R” (http://www.r-project.org/) and EC50 estimates were calculated using four-parameter log-logistic fit with the package “drc”^51.
Images were acquired on an ArrayScan VTi automated microscope (ThermoFisher) and numerical data were extracted with the Compartmental Analysis BioApplication of the bundled software suite. Compound screening raw data were collected at the FMP and data transformation was performed according to standard procedures (ref 17 and supp. Refs 6-7).

NotchΔE-EGFP [2] = test: Fluorescence microscopy of reporter localization in HeLa NotchΔE-EGFP cells; assay type: cell-based; conditions: 10 μM compound, 24 h
Procedure: FIG. 10: Phenotypes of Notch inhibitors are fully reversible. HeLa NotchΔE-EGFP cells plated in LabTek coverglass were incubated for 18 h with 10 iM of indicated compounds, washed and incubated for indicated times in cell culture medium. Cells were imaged by live-microscopy. […] Scalebar, 10 im.
For a detailed analysis of subcelluar distribution of NotchΔE/NICD the resolution of the HCS images was not sufficient. Therefore, the reporter cell line was plated on coverslips and incubated with 10 μM of individual compounds from the final hit list. After 24 h the localization of NotchΔE-EGFP/NICD-EGFP was determined by fluorescence microscopy. […] (FIG. 8).
Immunofluorescence stainings were made using standard procedures^55. Imaging was performed on a Zeiss Axiovert200 or an Axio Imager, using 63× 1.4NA objectives and Zeiss Axiovision software. For live-imaging cells were plated on Lab-Tek chambered coverglass (Thermo-Fisher). Images were assembled and processed using Adobe Photoshop. For displaying weakly stained ER-tubules/sheets non-linear changes in gamma-settings were used.

γ-secretase = test: In vitro γ-secretase assay with isolated membranes; assay type: biochemical; conditions: 37° C.
Procedure: (§1) FIG. 3: Effect of compounds on NotchΔE-EGFP, APP and Klotho trafficking and processing. a) HEK293 stably expressing APPswe or Klotho (KI) were incubated with DAPT or compounds (10 μM) for 16 h. Media were collected, cells lysed and both assayed by Western blotting using indicated antibodies. m, mature; im, immature; s, shedded ectodomain; CTF, C-terminal fragment. b) Membranes from HeLa-NotchΔE-EGFP and APPswe cells were isolated and subjected to a γ-secretase in vitro assay in the presence of DAPT or compounds as indicated. NICD and AICD were detected by Western Blotting using antibodies against the C-terminus of APP (top) or antibodies specific for NICD (bottom). c) Quantitation from 5 independent experiments.
To test whether FLI-06 affected other membrane proteins, Klotho, a type I protein processed like APP and Notch^20, was analyzed. […] To analyze γ-secretase activity, in vitro assays using isolated membranes were performed (FIG. 3b, c). Production of NICD-EGFP and AICD (APP intracellular domain) were assayed. Both were produced in vitro at 37° C. but not at 4° C., and their production was inhibited by DAPT.
For assaying AICD formation, membranes of HEK293 cells stably expressing APP with the Swedish mutation were isolated and incubated for 4 h at 37° C. according to Sastre et al.^52. For assaying NICD formation, membranes from HeLa NotchΔE-EGFP cells were mixed with membranes from HeLa NotchΔE-EGFP cells that were pre-treated with 10 μM DAPT overnight to enrich substrate. After incubation samples were loaded onto either 8% SDS-PA gels (NICD) or 10-20% Tris-Tricine gels (AICD), blotted and probed with cleaved-Notch antibody or antibody 6687 against APP C-terminus^53. Chemoluminescence was quantified on a LAS-4000 (Fuji) with MultiGauge software.

zebrafish embryos = test: Zebrafish embryo Notch phenotype (somites, ngn1 qPCR and ISH); assay type: in vivo, zebrafish Danio rerio; conditions: for ngn1 positive cell clusters along the spinal cord (ISH): compared to DMSO-treated control embryos; for ngn1 mRNA levels (qPCR): relative to DMSO controls
Procedure: (§2) Cells were incubated with DAPT or 10 μM of the indicated compounds (50 μM in case of FLI-15 and -20) and after 16 h a luciferase assay was performed. […] Changes in relative gene expression levels (fold change) relative to the expression levels in DMSO controls are represented as the mean+/−SD, asterisks indicate p<0.01. Each measurement was taken from two independent samples. Each reaction was measured in triplicate. Changes in the relative expression of ngn1 were standardized to the expression of the housekeeping gene ef1a at 20 hpf. c) ISH with riboprobes specific for ngn1 was performed on dechorionated stage 4 hpf zebrafish embryos. Anterior is to the left, dorsal to the top. Magnifications of the somite region (small box) are shown. Arrows indicate larger ngn1 clusters or stronger ngn1 staining. s, sensory neurons; i, intermediate neurons; m, motor neurons.
FIG. 11: Selected compounds affect somite formation and neurogenesis in vivo in zebrafish embryos. a) Lateral view of typical representative phenotypes induced by DAPT treatment, which were used as a reference to score the effect of compounds. […] Images were taken at 24 hpf. b) Pie chart showing the cumulative relative frequency of the phenotypes in a) at 24 hpf in embryos treated with 20, 50 and 100 iM of the indicated compounds. c) ISH with riboprobes specific for ngn1 was performed on dechorionated stage 4 hpf zebrafish embryos. Anterior is to the left, dorsal to the top. Magnifications of the developing head (box) are shown. Arrows indicate larger ngn1 clusters or stronger ngn1 staining. t, telencephalon; p, protectum; h, hindbrain; d, diencephalon; tg, tegmentum; vrc, ventral rostral cluster.
(§3) We wanted to test whether the results obtained with the NotchΔE-EGFP construct are relevant for endogenous Notch signaling. Therefore we made use of C2C12 cells, a well established model for muscle development that expresses endogenous Notch^21,22. After stimulating endogenous Notch signaling by transfecting the Notch ligand Delta, Notch activity was measured by a luciferase assay using a Notch reporter^15 in the presence or absence of compounds (FIG. 4a). […] Next, we tested whether selected compounds would affect Notch signaling in vivo. […] Compounds were added to dechorionated stage 4 hpf zebrafish embryos and the effects were analyzed after 24 h by morphological inspection of somite formation. Phenotypes were ranked to four categories, normal somites, mild somite defects, strong somite defects and developmental delay. […] As an additional parameter we decided to analyze Notch-dependent genes involved in neurogenesis. Primary neurogenesis in zebrafish involves the selection of neuroblasts (repressed by Notch) from proneural clusters (Notch expressing cells), a process regulated in a negative manner by Notch-dependent lateral inhibition^25. Accordingly, neuroblast cells that express the neuronal specification factor neurogenin (ngn1^26) became more abundant when Notch signaling was impaired, for instance upon DAPT treatment^23,27. qPCR analyses on mRNA extracted from equivalent sets of embryos was performed for ngn1 expression (FIG. 4b). […] To confirm the data obtained by qPCR, whole-mount in-situ hybridizations (ISH) using an ngn1 specific riboprobe were performed (FIG. 4c, FIG. 11c). […] Taken together, FLI-06, -14, -15, -19 and -20 inhibited endogenous Notch signaling in vitro and in vivo, corroborating the NotchΔE-EGFP reporter data.
Embryos were obtained from natural spawning of wild-type TüAB strain adults, raised and staged according to supp. Ref 14. DAPT and compounds were applied at 50 iM in E3 embryo medium to zebrafish embryos with chorions torn but not completely removed from sphere stage until the stage of analysis, according to ref 23. Control embryos were mock treated with the same concentration of DMSO dissolved in E3 embryo medium. […]

NotchΔE-EGFP [3] = test: Western blot of NotchΔE-EGFP processing in HeLa NotchΔE-EGFP lysates; assay type: cell-based; conditions: 10 μM, 18 h
Procedure: FIG. 2: Selected compounds from final hit list show distinct phenotypes. Hela NotchΔE-EGFP cells were incubated with compounds (10 μM) for 18 h, fixed and analyzed by fluorescence microscopy (a) or lysed, separated by SDS-PAGE, blotted and probed with antibodies against GFP and NICD (b). Tubulin served as loading control. c) Quantitation of NotchΔE-EGFP accumulation and NICD production from 3-4 experiments as shown in (b). […] Arrows, plasma membrane; scalebar, 10 μm.
Next, lysates of HeLa NotchΔE-EGFP cells treated with compounds were analyzed for processing of NotchΔE-EGFP by Western blot using antibodies specific for EGFP and NICD (FIG. 2b, c). The GFP antibody detected both the uncleaved reporter NotchΔE-EGFP and the γ-secretase product NICD-EGFP, whereas the NICD-specific antibody specifically detected cleaved NICD-EGFP. […] The observed effects were not cell type specific, as they were also apparent in U2OS cells stably expressing NotchΔE-EGFP (FIG. 9).

APP = APP processing in HEK293 cells stably expressing APPswe; assay type: cell-based; conditions: 10 μM, 16 h
Procedure: as §1
To test if the compounds that affected NotchΔE-EGFP processing also affected APP processing, HEK293 cells were used that stably expressed APPswe, a mutated APP that yields robust amounts of Aβ^18. […] All other compounds had no effect on APPCTF or Aβ.
APP, APPs, APPCTF and Aβ detection was as described before^54 using antibodies 22C11 for APP and APPs, 6687 for APPCTF and 3552 and 2D8 for Aβ. Klotho was detected as described in Bloch et al.^20. Chemoluminescence was quantified on a LAS-4000 (Fuji) with MultiGauge software.

[4] = tested on: endogenous Notch signaling; test: Luciferase Notch reporter assay in C2C12 cells transfected with Delta; assay type: cell-based; conditions: 10 μM, 16 h
Procedure: as §2, §3
Endogenous Notch signaling in C2C12 was determined by a luciferase assay using a 12xCSL-luciferase reporter and transfected Delta as described before^15.

SMILES: COCCOC(=O)C1=C(C)NC2=C(C(=O)CC(c3ccc(Cl)cc3)C2)C1c1ccccc1F (stereo not drawn) [C3]
activity in NotchΔE-EGFP cells (enuc/nuc ratios) (NotchΔE-EGFP [1]): no activity

SMILES: COCCOC(=O)C1=C(C)NC2=C(C(=O)CC(c3ccccc3)C2)C1c1ccccc1F (stereo not drawn) [C4]
activity in NotchΔE-EGFP cells (enuc/nuc ratios) (NotchΔE-EGFP [1]): no activity

SMILES: COC(=O)C1=C(C)NC2=C(C(=O)CC(c3ccc(Cl)cc3)C2)C1c1ccccc1F (stereo not drawn) [C5]
activity in NotchΔE-EGFP cells (enuc/nuc ratios) (NotchΔE-EGFP [1]): no activity

NICD-EGFP and AICD production in isolated membranes (γ-secretase): inhibited
SMILES: C[C@H](NC(=O)Cc1cc(F)cc(F)c1)C(=O)N[C@H](C(=O)OC(C)(C)C)c1ccccc1 [DAPT, reference compound]
cell viability by visual inspection (NotchΔE-EGFP [1]): viable at all times | t1/2 of decrease of NICD-EGFP fluorescence in the nucleus (NotchΔE-EGFP [1]; 1 μM DAPT): 4.7 ± 1.0 h | t9/10 of decrease of NICD-EGFP fluorescence in the nucleus (NotchΔE-EGFP [1]; 1 μM DAPT): 8.6 ± 2.9 h | localization of NotchΔE-EGFP/NICD-EGFP (NotchΔE-EGFP [2]): accumulated at the PM | ngn1 positive cell clusters in the developing brain (ISH) (zebrafish embryos; 50 μM, compared to DMSO controls): differentially expanded | ngn1 positive cell clusters along the spinal cord (ISH) (zebrafish embryos; 50 μM): expanded and denser clusters of ngn1 positive cells | ngn1 mRNA levels (qPCR) (zebrafish embryos; 50 μM): significantly increased | somite/morphological phenotype (zebrafish embryos; embryos treated from 4-6 hpf, scored at 24 hpf): either defective somitogenesis (mild), head and trunk malformation (strong) or developmental delay (delayed)

SMILES: COc1ccc(C(=O)O)cc1Nc1nc2ccccc2nc1NS(=O)(=O)c1ccc(Cl)cc1 [FLI-16]
localization of NotchΔE-EGFP/NICD-EGFP (NotchΔE-EGFP [2]): did not alter the reporter localization | NotchΔE-EGFP processing (NotchΔE-EGFP [3]): no influence on NotchΔE-EGFP processing | APPs (shedded ectodomain) secretion (APP): reduced APPs secretion | NICD-EGFP and AICD production in isolated membranes (γ-secretase): did not affect in vitro γ-secretase activity | inhibition of endogenous Notch signaling [4]: strongly | ngn1 positive cell clusters along the spinal cord (ISH) (zebrafish embryos; 50 μM): reduced | ngn1 mRNA levels (qPCR) (zebrafish embryos; 50 μM): did not induce significant changes

SMILES: COCCOC(=O)C1=C(C)NC2=C(C(=O)CC(c3ccccc3OC)C2)C1c1cccc(O)c1 (stereo not drawn) [HPI-1]
activity in NotchΔE-EGFP cells (enuc/nuc ratios) (NotchΔE-EGFP [1]): no activity

SMILES: CC(C)C[C@@H](C=O)NC(=O)[C@H](CC(C)C)NC(=O)[C@H](CC(C)C)NC(=O)OCc1ccccc1 [MG132] (Cbz-Leu-Leu-Leu-aldehyde)
change of reporter localization quantified by automated microscopy (NotchΔE-EGFP [1]): accumulation of NICD in the nucleus

SMILES: CCCCCOC(=O)C1=C(C)NC2=C(C(=O)CC(C)(C)C2)C1c1ccc([N+](=O)[O-])cc1 (stereo not drawn) [ST216093]
activity in NotchΔE-EGFP cells (enuc/nuc ratios) (NotchΔE-EGFP [1]): show the desired activity

SMILES: CC1=C(C(=O)OC2CCCCC2)C(c2ccc([N+](=O)[O-])cc2)C2=C(CC(C)(C)C/C2=N\OCC(=O)O)N1 (stereo not drawn) [compound 6, E-2-(((3′-Cyclohexyloxycarbonyl-4″-nitrophenyl-2′,7′,7′-trimethyl-1′,4′,5′,6′,7′,8′-hexahydroquinoline-5′-ylidene)amino)oxy)acetic acid]
activity in NotchΔE-EGFP cells (enuc/nuc ratios) (NotchΔE-EGFP [1]): entirely inactive

SMILES: CC[C@@]1([C@@H]2O[C@@H]([C@H]3O[C@@](O)(CO)[C@H](C)C[C@@H]3C)C[C@@H]2C)CC[C@H]([C@]2(C)CC[C@]3(C[C@H](O)[C@@H](C)[C@@H]([C@@H](C)[C@@H](OC)[C@H](C)C(=O)O)O3)O2)O1 [monensin]
change of reporter localization quantified by automated microscopy (NotchΔE-EGFP [1]): blocking the anterograde transport of NotchΔE-EGFP
